Results taken from PMC6718736, “Validation of in vitro methods for human cytochrome P450 enzyme induction: Outcome of a multi-laboratory study” (Toxicology in Vitro, 2019).
Read-outs that look alike come from different tables or passages of the source.

Legend:
[1] = tested on: CYP1A2; conditions: cited from earlier work; for Induction in vivo: CYP1A2, human, ref Table 1; for CYP induction in vivo literature reference: CYP1A2: human in vivo, CYP named without remark = induced, ref references in the cell, Washington University database, Hoffmann et al. (2014), Pelkonen et al. (2008), Hukkanen et al. (2012); for CYP1A2 induction in vivo: human, ref Andersson, 1996
[2] = tested on: CYP3A4; assay: CYP3A4 enzyme induction assay in cryopreserved primary human hepatocytes (PHH); conditions: for Assigned classification CYP3A4: PHH
[3] = cited from earlier work
[4] = tested on: CYP3A4; conditions: cited from earlier work; for CYP induction in vivo literature reference: CYP3A4: human in vivo, CYP named without remark = induced, ref references in the cell, Washington University database, Hoffmann et al. (2014), Pelkonen et al. (2008), Hukkanen et al. (2012)
[5] = tested on: CYP3A4; assay: CYP3A4 enzyme induction assay in cryopreserved HepaRG cells (midazolam probe, LC/MS); assay type: in vitro ADME, human; conditions: for Assigned classification CYP3A4: HepaRG
[6] = tested on: CYP; conditions: cited from earlier work; for CYP induction in vitro (human hepatocytes): CYP isoforms induced, ref Abadie et al. (2009), Richert et al. (2010), Preissner et al. (2010), Hoffmann et al. (2014)
[7] = tested on: CYP2B6; assay: CYP2B6 enzyme induction assay in cryopreserved HepaRG cells (bupropion probe, LC/MS); assay type: in vitro ADME, human; conditions: for Prediction in vivo inducer: Cmax/F2 >0.5 criterion; for Assigned classification CYP2B6: HepaRG
[8] = tested on: CYP1A2; assay: CYP1A2 enzyme induction assay in cryopreserved HepaRG cells (phenacetin probe, LC/MS); assay type: in vitro ADME, human; conditions: for F2: in vitro concentration producing 2-fold induction; for Prediction in vivo inducer: Cmax/F2 >0.5 criterion; for Assigned classification CYP1A2: HepaRG
[9] = tested on: CYP2B6; assay: CYP2B6 enzyme induction assay in cryopreserved primary human hepatocytes (PHH); assay type: in vitro ADME; conditions: for Assigned classification CYP2B6: PHH
[10] = tested on: CYP1A2; assay: CYP1A2 enzyme induction assay in cryopreserved primary human hepatocytes (PHH); assay type: in vitro ADME; conditions: for Prediction in vivo inducer: Cmax/F2 >0.5 criterion; for Assigned classification CYP1A2: PHH
[11] = human in vivo plasma concentration, normal dose
[12] = human in vivo, normal dose (Table 10)

O=C1C(CC[S+]([O-])c2ccccc2)C(=O)N(c2ccccc2)N1c1ccccc1 (stereo not shown) [Sulfinpyrazone]
CYP1A2: CYP induction in vivo literature reference: CYP1A2 [1]
CYP1A2, CYP2B6, CYP3A4: CYP induction in vitro (human hepatocytes) [6]
33 µM: F2 ([9]; CYP2B6, PHH)
45 µM: Cmax [3, 11] | Cmax [3, 12]
3.66 µM: F2 ([2]; CYP3A4, PHH)
11 µM: F2 ([5]; CYP3A4, HepaRG cells) | F2 ([8]; CYP1A2, HepaRG cells)
Yes: Induction in vivo [1]
demonstrated: CYP2B6 induction in human hepatocytes ([6]; CYP2B6, ref Faucette et al., 2004)
CYP3A4: CYP induction in vivo literature reference: CYP3A4 [4]
11.0 to 33.0 µM: F2 ([7]; CYP2B6, HepaRG cells, in vitro concentration producing 2-fold induction)

COc1ccc2[nH]c([S+]([O-])Cc3ncc(C)c(OC)c3C)nc2c1 (stereo not shown) [Omeprazole]
not a CYP1A2 inducer: CYP1A2 induction in vivo ([1]; normal doses (20-40 mg))
12.9 µM: F2 ([8]; CYP1A2, HepaRG cells)
38.6 to 116 µM: F2 ([9]; CYP2B6, PHH)
CYP1A2, CYP2B6, CYP3A4: CYP induction in vitro (human hepatocytes) [6]
38.6 to 118 µM: F2 ([10]; CYP1A2, PHH, in vitro concentration producing 2-fold induction)
Yes: Induction in vitro ([2]; CYP3A4, PHH) | Induction in vitro ([10]; CYP1A2, PHH, positive in one donor in each of the three laboratories) | Induction in vitro ([8]; CYP1A2, HepaRG cells, positive in one batch in each of the three laboratories) | Induction in vitro ([9]; CYP2B6, PHH)
1: Assigned classification CYP3A4 ([2]; Lab 1, batch 0 6 A) | Assigned classification CYP3A4 ([2]; Lab 1, batch 8 0 8) | Assigned classification CYP3A4 ([2]; Lab 2, batch 0 6 A) | Assigned classification CYP3A4 ([2]; Lab 3, batch 0 6 A) | Assigned classification CYP3A4 ([2]; Lab 3, batch 8 0 8) | Assigned classification CYP2B6 ([7]; Lab 2, batch 36) | Assigned classification CYP2B6 ([7]; Lab 3, batch 20) | Assigned classification CYP1A2 ([10]; Lab 1, batch 0 6 A) | Assigned classification CYP1A2 ([10]; Lab 1, batch 4 0 8) | Assigned classification CYP1A2 ([10]; Lab 1, batch 8 0 8) | Assigned classification CYP1A2 ([10]; Lab 2, batch 0 6 A) | Assigned classification CYP1A2 ([10]; Lab 2, batch 4 0 8) | Assigned classification CYP1A2 ([10]; Lab 2, batch 8 0 8) | Assigned classification CYP1A2 ([10]; Lab 3, batch 0 6 A) | Assigned classification CYP1A2 ([10]; Lab 3, batch 4 0 8) | Assigned classification CYP1A2 ([10]; Lab 3, batch 8 0 8) | Assigned classification CYP1A2 ([8]; Lab 1, batch 20) | Assigned classification CYP1A2 ([8]; Lab 1, batch 35) | Assigned classification CYP1A2 ([8]; Lab 1, batch 36) | Assigned classification CYP1A2 ([8]; Lab 2, batch 20) | Assigned classification CYP1A2 ([8]; Lab 2, batch 35) | Assigned classification CYP1A2 ([8]; Lab 2, batch 36) | Assigned classification CYP1A2 ([8]; Lab 3, batch 20) | Assigned classification CYP1A2 ([8]; Lab 3, batch 35) | Assigned classification CYP1A2 ([8]; Lab 3, batch 36) | Assigned classification CYP2B6 ([9]; Lab 1, batch 0 6 A) | Assigned classification CYP2B6 ([9]; Lab 1, batch 4 0 8) | Assigned classification CYP2B6 ([9]; Lab 2, batch 0 6 A) | Assigned classification CYP2B6 ([9]; Lab 3, batch 0 6 A) | Assigned classification CYP2B6 ([9]; Lab 3, batch 4 0 8) | Assigned classification CYP2B6 ([9]; Lab 3, batch 8 0 8)
NOT induced: CYP induction in vivo literature reference: CYP3A4 [4]
NOT induced at clinically used doses: CYP induction in vivo literature reference: CYP1A2 [1]
predicted as a non-inducer: Prediction in vivo inducer ([7]; CYP2B6, HepaRG cells, listed as omeprazole)
0: Assigned classification CYP3A4 ([2]; Lab 1, batch 4 0 8) | Assigned classification CYP3A4 ([2]; Lab 2, batch 4 0 8) | Assigned classification CYP3A4 ([2]; Lab 2, batch 8 0 8) | Assigned classification CYP3A4 ([2]; Lab 3, batch 4 0 8) | Assigned classification CYP3A4 ([5]; Lab 1, batch 20) | Assigned classification CYP3A4 ([5]; Lab 1, batch 35) | Assigned classification CYP3A4 ([5]; Lab 1, batch 36) | Assigned classification CYP3A4 ([5]; Lab 2, batch 20) | Assigned classification CYP3A4 ([5]; Lab 2, batch 35) | Assigned classification CYP3A4 ([5]; Lab 2, batch 36) | Assigned classification CYP3A4 ([5]; Lab 3, batch 20) | Assigned classification CYP3A4 ([5]; Lab 3, batch 35) | Assigned classification CYP3A4 ([5]; Lab 3, batch 36) | Assigned classification CYP2B6 ([7]; Lab 1, batch 20) | Assigned classification CYP2B6 ([7]; Lab 1, batch 35) | Assigned classification CYP2B6 ([7]; Lab 1, batch 36) | Assigned classification CYP2B6 ([7]; Lab 2, batch 20) | Assigned classification CYP2B6 ([7]; Lab 2, batch 35) | Assigned classification CYP2B6 ([7]; Lab 3, batch 35) | Assigned classification CYP2B6 ([7]; Lab 3, batch 36) | Assigned classification CYP2B6 ([9]; Lab 1, batch 8 0 8) | Assigned classification CYP2B6 ([9]; Lab 2, batch 4 0 8) | Assigned classification CYP2B6 ([9]; Lab 2, batch 8 0 8)
38.7 to 117 µM: F2 ([2]; CYP3A4, PHH)
weak inducer: CYP1A2 induction in vivo ([1]; 120 mg doses or poor metabolizers (40 mg dose))
No: Induction in vivo [1] | Prediction in vivo inducer ([2]; CYP3A4, PHH) | Induction in vivo ([4]; CYP3A4, human in vivo reference classification (Table 11)) | Induction in vitro ([5]; CYP3A4, HepaRG cells) | Prediction in vivo inducer ([5]; CYP3A4, HepaRG cells) | Prediction in vivo inducer ([7]; CYP2B6, HepaRG cells) | Induction in vitro ([7]; CYP2B6, HepaRG cells, positive in one batch in each of the three laboratories) | Prediction in vivo inducer ([10]; CYP1A2, PHH) | Prediction in vivo inducer ([8]; CYP1A2, HepaRG cells) | Prediction in vivo inducer ([9]; CYP2B6, PHH)
0.68 to 3.5 µM: Cmax [3, 11] | Cmax [3, 12]
non-inducer: Prediction in vivo inducer ([2]; CYP3A4, PHH, Cmax/F2 >0.5 criterion) | Prediction in vivo inducer ([5]; CYP3A4, HepaRG cells, Cmax/F2 >0.5 criterion) | Prediction in vivo inducer ([10]; CYP1A2, PHH, listed as omeprazole) | Prediction in vivo inducer ([8]; CYP1A2, HepaRG cells, listed as omeprazole) | Prediction in vivo inducer ([9]; CYP2B6, PHH, Cmax/F2 >0.5 criterion)
